From patent US4999359A, “Heterocyclic ethylene diamine compounds and their pharmaceutical compositions and methods” (Dr. Lo Zambeletti S.p.A., priority 1988, dated 1991)
Structures can show the parent of a compound that is named as a salt. Where two headings read alike, the source gives them in different places.

How the values were obtained:
[1] = test system: mice (tail-flick); test: animal or person; assay type: in vivo; settings: Mus musculus, sc, 0.5 h, read-out: ANALGESIA TAIL-FLICK ED50 (a)
[2] = target: μ opioid receptor (Cavia porcellus, UniProt A0ACM8Q262); test: Binding to μ sites (3H-DAGO), receptor affinity study; set-up: species or system guinea pig
Chain of μ opioid receptor (A0ACM8Q262 1-400): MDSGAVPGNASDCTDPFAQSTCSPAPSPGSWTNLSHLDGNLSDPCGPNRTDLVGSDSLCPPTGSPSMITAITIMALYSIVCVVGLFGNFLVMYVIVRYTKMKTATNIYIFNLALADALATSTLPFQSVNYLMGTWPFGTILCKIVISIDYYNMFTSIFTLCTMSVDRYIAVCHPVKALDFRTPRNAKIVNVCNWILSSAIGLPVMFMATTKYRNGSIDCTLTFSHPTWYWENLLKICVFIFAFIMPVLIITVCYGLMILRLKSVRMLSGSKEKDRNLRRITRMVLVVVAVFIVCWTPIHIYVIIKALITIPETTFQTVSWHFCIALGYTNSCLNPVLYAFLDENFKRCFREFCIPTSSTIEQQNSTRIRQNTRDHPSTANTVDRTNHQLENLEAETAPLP

[3] = target: T1, kappa opioid receptors (Cavia porcellus, UniProt P41144); test: biochemical; assay type: binding, guinea pig
T1 construct: fresh guinea pig brain homogenate; from tissue; host or cells: guinea pig whole brain without cerebellum, homogenate
T1 sequence (P41144 whole entry): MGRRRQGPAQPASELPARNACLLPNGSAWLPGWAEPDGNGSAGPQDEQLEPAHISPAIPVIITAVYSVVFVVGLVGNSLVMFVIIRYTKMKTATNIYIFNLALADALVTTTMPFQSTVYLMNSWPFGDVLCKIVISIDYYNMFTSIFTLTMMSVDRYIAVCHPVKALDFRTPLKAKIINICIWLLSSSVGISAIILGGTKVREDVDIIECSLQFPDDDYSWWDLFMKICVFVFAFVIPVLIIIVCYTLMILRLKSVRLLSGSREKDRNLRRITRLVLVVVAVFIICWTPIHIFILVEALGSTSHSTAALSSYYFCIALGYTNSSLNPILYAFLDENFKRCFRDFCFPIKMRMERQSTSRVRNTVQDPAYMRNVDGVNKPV

[4] = test system: mice (p-phenylquinone-induced abdominal writhing); test: P-phenylquinone-induced abdominal writhing test in mice; assay type: in vivo; settings: Mus musculus, sc, p-phenylquinone i.p. 2 mg/Kg after 20 min pretreatment, calculated for the free base, read-out: ANALGESIA WRITHING ED50 (a)
Procedure: P-phenylquinone-induced abdominal writhing test in mice
The methodology employed is based on that described by Sigmund et al, Proc. Soc. Exptl. Biol. 95, 729/1957, modified by Milne and Twomey, Agents and Actions, 10, 31/1980.
Male Charles River mice (Swiss Strain), 25-36 g body weight, are used. Animals are allowed food and water ad libitum and are randomized into groups of 10 prior to experimentation. Test compounds are dissolved in either distilled water or distilled water plus 0.1M AMS, and administered by the subcutaneous route in a final volume of 10 ml/Kg. Control animals receive 10 ml/Kg of the appropriate vehicle alone. Following a pretreatment period of 20 min., mice are injected intraperitoneally with p-phenylquinone, 2 mg/Kg at 37° C. in a final volume of […]. Next, the mice are placed, in a groups of 3, in a compartmented perspex box maintained at room temperature and are observed for a period of 8 min. During this period the number of abdominal writhing responses per animal are recorded where writhing consists of an intermittent contraction of the abdomen associated with hind leg extension.
The degree of antinociceptive protection afforded by the test compound is determined as the mean number of writhing responses observed in the treated group (T) expressed as a percentage of the mean number of writhing responses in the control group (C) according to the following formula:
[1-(T/C)]×100%=% graded protection.

[5] = read-out: OPIATE RECEPTORS BINDING ki MU; guinea pig brain homogenate; 3H-DAGO; 40 min, 25° C.
[6] = read-out: OPIATE RECEPTORS BINDING ki MU

## O=C(Cc1ccc(Cl)c(Cl)c1)N1CCc2sccc2C1CN1CCCC1 (single isomer, unassigned) [Example 9, (-)-4-(pyrrolidin-1-yl)methyl-5-(3,4-dichlorophenyl)acetyl-4,5,6,7-tetrahydrothieno[3,2-c]pyridine D(-) tartrate hemihydrate]
[1]
  ED50: 0.007 mg/kg
[2]; [5]
  Ki: 47.2 nM
[3]
  Ki: 1.07 nM
[4]
  ED50: 0.003 mg/kg

## O=C(Cc1ccc(Cl)c(Cl)c1)N1CCc2sccc2C1CN1CCCCC1 (single isomer, unassigned) [Example 10, (-)-4-(piperidin-1-yl)methyl-5-(3,4-dichlorophenyl)acetyl-4,5,6,7-tetrahydrothieno[3,2-c]pyridine L(+) tartrate hemihydrate]
[1]
  ED50: 0.041 mg/kg
[2]; [6]
  Ki: 500 nM
[4]
  ED50: 0.01 mg/kg

## O=C(Cc1ccc(C(F)(F)F)cc1)N1CCc2sccc2C1CN1CCCCC1 (single isomer, unassigned) [Example 13, (-)-4-(piperidin-1-yl)methyl-5-(4-trifluoromethylphenyl)acetyl-4,5,6,7-tetrahydrothieno[3,2-c]pyridine L(+) tartrate monohydrate]
[1]
  ED50: 0.054 mg/kg
[2]; [5]
  Ki: 468 nM
[4]
  ED50: 0.01 mg/kg

## CC(C1c2ccsc2CCN1C(=O)Cc1ccc(Cl)c(Cl)c1)N(C)C.Cl (single isomer, unassigned) [Example 18, 4-[1-(dimethylamino)ethyl]-5-(3,4-dichlorophenyl)acetyl-4,5,6,7-tetrahydrothieno[3,2-c]pyridine hydrochloride]
[1]
  ED50: 0.824 mg/kg
[4]
  ED50: 0.204 mg/kg

## Cl.O.O=C(Cc1ccc(Cl)c(Cl)c1)N1CCc2sccc2C1CN1CCCC1 (stereo not shown) [Example 3, 4-(pyrrolidin-1-yl)methyl-5-(3,4-dichlorophenyl)acetyl-4,5,6,7-tetrahydrothieno[3,2-c]pyridine hydrochloride monohydrate]
[1]
  ED50: 0.019 mg/kg
[2]; [5]
  Ki: 85 nM
[3]
  Ki: 1.19 nM
[4]
  ED50: 0.004 mg/kg

## Cl.O=C(Cc1ccc(C(F)(F)F)cc1)N1CCc2sccc2C1CN1CCCC1 (stereo not shown) [Example 4, 4-(pyrrolidin-1-yl)methyl-5-(4-trifluoromethylphenyl)acetyl-4,5,6,7-tetrahydrothieno[3,2-c]pyridine hydrochloride]
[1]
  ED50: 0.018 mg/kg
[2]; [5]
  Ki: 39.2 nM
[3]
  Ki: 1.78 nM
[4]
  ED50: 0.004 mg/kg

## Cl.O=C(Cc1ccc(Cl)c(Cl)c1)N1CCc2sccc2C1CN1CCCCC1 (stereo not shown) [Example 5, 4-(piperidin-1-yl)methyl-5-(3,4-dichlorophenyl)acetyl-4,5,6,7-tetrahydrothieno[3,2-c]pyridine hydrochloride]
[1]
  ED50: 0.09 mg/kg
[2]; [5]
  Ki: 781 nM
[3]
  Ki: 1.29 nM
[4]
  ED50: 0.022 mg/kg

## CN(C)CC1c2ccsc2CCN1C(=O)Cc1ccc(Cl)c(Cl)c1.Cl (stereo not shown) [Example 6, 4-dimethylaminomethyl-5-(3,4-dichlorophenyl)acetyl-4,5,6,7-tetrahydrothieno[3,2-c]pyridine hydrochloride]
[1]
  ED50: 0.042 mg/kg
[2]; [5]
  Ki: 607 nM
[3]
  Ki: 1.75 nM

## CN(C)CC1c2ccsc2CCN1C(=O)Cc1ccc(C(F)(F)F)cc1 (stereo not shown) [Example 7, 4-dimethylaminomethyl-5-(4-trifluoromethylphenyl)acetyl-4,5,6,7-tetrahydrothieno[3,2-c]pyridine 1.5 hydrochloride 1/3 hydrate]
[1]
  ED50: 0.093 mg/kg
[2]; [6]
  Ki: 513 nM
[3]
  Ki: 3.46 nM

## O=C(Cc1ccc(C(F)(F)F)cc1)N1CCc2sccc2C1CN1CCCCC1 (stereo not shown) [Example 12, 4-(piperidin-1-yl)methyl-5-(4-trifluoromethylphenyl)acetyl-4,5,6,7-tetrahydrothieno[3,2-c]pyridine]
[1]
  ED50: 0.09 mg/kg
[2]; [5]
  Ki: 793 nM
[4]
  ED50: 0.034 mg/kg

## O=C(Cc1ccc(Cl)c(Cl)c1)N1CCc2[nH]c3ccccc3c2C1CN1CCCC1 (stereo not shown) [Example 15, 1-(pyrrolidin-1-yl)methyl-2-(3,4-dichlorophenyl)acetyl-1,2,3,4-tetrahydro-5H-pyrido[4,3-b]indole hydrochloride hemihydrate]
[1]
  ED50: > 10 mg/kg
[4]
  ED50: > 10 mg/kg

## O=C(Cc1ccc(Cl)c(Cl)c1)N1CCc2[nH]c3ccccc3c2C1CN1CCCCC1 (stereo not shown) [Example 16, 1-(piperidin-1-yl)methyl-2-(3,4-dichlorophenyl)acetyl-1,2,3,4-tetrahydro-5H-pyrido[4,3-b]indole]
[1]
  ED50: > 10 mg/kg
[4]
  ED50: > 10 mg/kg

## O=C(Cc1ccc2c(c1)CCCC2)N1CCc2sccc2C1CN1CCCCC1 (stereo not shown) [Example 19, 4-(piperidin-1-yl)methyl-5-(5,6,7,8-tetrahydronapht-2-yl) acetyl-4,5,6,7-tetrahydrothieno[3,2-c]pyridine hydrochloride hemihydrate]
[1]
  ED50: 0.22 mg/kg
[4]
  ED50: 0.092 mg/kg

## O=C(Cc1ccc2c(c1)CCC2)N1CCc2sccc2C1CN1CCCCC1 (stereo not shown) [Example 20, 4-(piperidin-1-yl)methyl-5-(indan-5-yl)acetyl-4,5,6,7-tetrahydrothieno[3,2-c]pyridine hydrochloride 1/3 hydrate]
[1]
  ED50: 0.412 mg/kg
[4]
  ED50: 0.092 mg/kg

## O=C(Cc1ccc2c(c1)CCCC2)N1CCc2sccc2C1CN1CCCC1 (stereo not shown) [Example 21, 4-(pyrrolidin-1-yl)methyl-5-(5,6,7,8-tetrahydronapht-2-yl) acetyl-4,5,6,7-tetrahydrothieno[3,2-c]pyridine hydrochloride]
[1]
  ED50: 0.236 mg/kg
[2]; [5]
  Ki: 56 nM
[4]
  ED50: 0.022 mg/kg

## Cl.O=C(Cc1ccc2c(c1)CCC2)N1CCc2sccc2C1CN1CCCC1 (stereo not shown) [Example 22, 4-(pyrrolidin-1-yl)methyl-5-(indan-5-yl)acetyl-4,5,6,7-tetrahydrothieno[3,2-c]pyridine hydrochloride]
[1]
  ED50: 0.146 mg/kg
[2]; [5]
  Ki: 104 nM
[4]
  ED50: 0.014 mg/kg

## O=C(Cc1ccc(Cl)c(Cl)c1)N1CCc2[nH]cnc2C1CN1CCCC1 (stereo not shown) [Example 23, 4-(pyrrolidin-1-yl)methyl-5-(3,4-dichlorophenyl)acetyl-4,5,6,7-tetrahydroimidazo[4,5-c]pyridine]
[1]
  ED50: > 50 mg/kg
[2]; guinea pig brain homogenate; 3H-DAGO; 40 min, 25° C.; read-out: OPIATE RECEPTORS BINDING ki MU
  Ki: > 1000 nM
